Laboratory results from US12339285B2, “Method for estimating therapeutic efficacy” (Konica Minolta, Inc., priority 2017, dated 2025).
Read-outs that look alike come from different tables or passages of the source.

System: tumor tissue of lung cancer patients transplanted in SCID mice
Method: Further, tumor tissue was collected from each of the patients at the same time when drug administration was started, and a 2 mm-square piece of the tumor tissue was transplanted under the skin of SCID (Severe Combined ImminoDeficiency) mice (5 mice transplanted with tumor tissue derived from each patient were produced, and a total of 20 mice were produced). […] After 1 day and 100 days from the administration, tumor tissue was collected from the mice, and sample slides were prepared in the same manner as in Preparation for evaluation-1.

COc1cc2ncnc(Nc3ccc(F)c(Cl)c3)c2cc1OCCCN1CCOCC1 [Gefitinib]
resistance in PDX mice (PDX mice of the patient B or D (so in the source), judged from tumor volume): resistance was not developed | volume of tumor (PDX mice transplanted with tumor tissue of patient F or H (drug resistant on day 100)): once reduced on day 100 after drug administration, but was increased thereafter | resistance to Gefitinib in PDX mice (PDX mice transplanted with tumor tissue of patient F or H, judged from tumor volume): resistance to Gefitinib was developed | volume of tumor (PDX mice transplanted with tumor tissue of the patient B or D (so in the source) with no drug resistance on day 100): gradually reduced
